A short description of one series: physchem. Conditions: buffer, pH 7.4.
Series [1] can be described thus: Apparent permeability across MDCK2 cells. The series is classed as ADME, cell-based, Canis lupus familiaris, MDCK-II. The conditions noted are these: dog, MDCK.
Series [2] is described as follows: Aqueous kinetic solubility of the compound at pH 6.5. Type of series: physicochemical. Conditions: read-out: Kinetic_solubility.
A short description of series [3]: Drug excretion in Wistar-Han rat bile at 5 mg/kg, iv. The series is classed as ADME, organism-based. On the set-up: dose 5 mg/kg, route intravenous. The conditions noted are these: read-out: Drug excretion.
Series [4] is described as follows: Oral bioavailability in Wistar-Han rat at 5 mg/kg. Type of series: ADME, organism-based. Conditions: in vivo.
Series [5] in a line: Oral bioavailability in Beagle dog at 4 mg/kg. The conditions noted are these: in vivo. The series is classed as ADME, organism-based, Canis lupus familiaris.
Series [6] is described as follows: Volume of distribution at steady state in Beagle dog at 0.5 mg/kg, iv and 5 mg/kg, po. The series is classed as ADME, organism-based, Canis lupus familiaris. The conditions noted are these: in vivo, read-out: Vdss.
A short description of series [7]: Volume of distribution at steady state in Wistar-Han rat at 1 mg/kg, iv and 50 mg/kg, po. The series is classed as ADME, organism-based. The conditions noted are these: in vivo, read-out: Vdss.
Series [8] is described as follows: Oral bioavailability in Wistar-Han rat at 50 mg/kg. Type of series: ADME, organism-based. Conditions: in vivo.
A short description of series [9]: Apparent permeability across human Caco2 cells at pH 6.5. Type of series: ADME, cell-based. Conditions: Caco-2, pH 6.5. Background: Passage across Caco-2 layers is used to estimate intestinal permeability.
A short description of series [10]: Apparent permeability across human Caco2 cells at pH 7.4. The series is classed as ADME, cell-based. The conditions noted are these: Caco-2, pH 7.4.
Series [11] in a line: Oral bioavailability in Beagle dog at 5 mg/kg. The conditions noted are these: in vivo. The series is classed as ADME, organism-based, Canis lupus familiaris.

Structures are written as SMILES. Values after ≈ are worked out from the molar mass of the structure shown.

`CCC[C@@H](Oc1cc(C)c(-n2cc(C(F)(F)F)cn2)c(C)c1)c1ccc(C(=O)NCCC(=O)O)cc1` returned a log distribution coefficient (logD) in the series “physchem” of 2.7. Regarding `CCCC(Nc1ccc(-n2cnc(C(F)(F)F)c2)cc1)c1ccc(C(=O)NCCC(=O)O)cc1` (racemic), the Papp in [1] is 0.6 ×10⁻⁶ cm/s. For the same compound, the solubility kinetic in [2] is 350 µM (≈ 166 µg/mL). The logD in “physchem” worked out at 1.3.

On to `CCCC(Nc1ccc(-n2cc(C(F)(F)F)cn2)cc1)c1ccc(C(=O)NCCC(=O)O)cc1` (racemic), for which the Papp in series [1] amounted to 4 ×10⁻⁶ cm/s. Also, the solubility kinetic in series [2] is 350 µM (≈ 166 µg/mL). This compound yielded a logD in the series “physchem” of 1.9. For the compound `CCCC(Nc1ccc(-n2cc(C(F)(F)F)cn2)nc1)c1ccc(C(=O)NCCC(=O)O)cc1` (racemic), the apparent permeability (Papp) in series [1] was determined as 4.6 ×10⁻⁶ cm/s. In “physchem”, this compound returned a logD of 2.1. Regarding `CCCC(Nc1cnc(-n2cc(C(F)(F)F)cn2)nc1)c1ccc(C(=O)NCCC(=O)O)cc1` (racemic), the apparent permeability coefficient (Papp) in series [1] was determined as 0.8 ×10⁻⁶ cm/s. In series [2], the solubility kinetic came out at 380 µM (≈ 181 µg/mL). In addition, the log distribution coefficient (logD) in “physchem” was 1.3. Consider `CCCC(Oc1ccc(-n2cc(C(F)(F)F)cn2)cc1)c1ccc(C(=O)NCCC(=O)O)cc1` (racemic), for which the Papp in series [1] is 3.1 ×10⁻⁶ cm/s. Moreover, the solubility kinetic in series [2] is 400 µM (≈ 190 µg/mL). This compound also returned a logD in “physchem” of 2.4.

Consider `CCCC(Oc1ccc(-n2cc3ccccc3n2)cc1)c1ccc(C(=O)NCCC(=O)O)cc1` (racemic), for which the logD in the series “physchem” was found to be 2.5.

As for `CCCC(Nc1ccc(-n2cc(C(F)(F)F)cn2)cn1)c1ccc(C(=O)NCCC(=O)O)cc1` (racemic), the Papp in [1] was found to be 0.8 ×10⁻⁶ cm/s. Further, the pH-dependent lipophilicity (logD) in the series “physchem” stood at 1.3. Turning to `CCCC(Nc1cc(C)c(-n2cc(C(F)(F)F)cn2)c(C)c1)c1ccc(C(=O)NCCC(=O)O)cc1` (racemic), in series [1], the Papp turned out to be 2.7 ×10⁻⁶ cm/s. For the same compound, the logD in “physchem” worked out at 2.2. For the compound `CCCC(Oc1ccc(-n2cnc(C(F)(F)F)c2)cc1)c1ccc(C(=O)NCCC(=O)O)cc1` (racemic), in series [1], the Papp turned out to be 2.3 ×10⁻⁶ cm/s. In the case of `CCCC(Oc1ccc(-n2cc(C(F)(F)F)cn2)nc1)c1ccc(C(=O)NCCC(=O)O)cc1` (racemic), the Papp in [1] was 3.4 ×10⁻⁶ cm/s. The compound also yielded a logD in “physchem” of 2.6. With `CCCC(Oc1cnc(-n2cc(C(F)(F)F)cn2)nc1)c1ccc(C(=O)NCCC(=O)O)cc1` (racemic), in “physchem”, the pH-dependent lipophilicity (logD) turned out to be 1.5. Regarding `O=C(O)CCNC(=O)c1ccc(C(Oc2ccc(-n3cc(C(F)(F)F)cn3)cc2)C2CCC2)cc1` (racemic), the logD in the series “physchem” is 2.6. In “physchem”, `CC(C)CC(Oc1ccc(-n2cc(C(F)(F)F)cn2)cc1)c1ccc(C(=O)NCCC(=O)O)cc1` (racemic) gave a pH-dependent lipophilicity (logD) of 3.2. For `O=C(O)CCNC(=O)c1ccc(C(Oc2ccc(-n3cc(C(F)(F)F)cn3)cc2)C2CCCC2)cc1` (racemic), the logD in the series “physchem” worked out at 3.3. On the same count and under the same terms, with `CC(C)(C)C(Oc1ccc(-n2cc(C(F)(F)F)cn2)cc1)c1ccc(C(=O)NCCC(=O)O)cc1` (racemic) the figure was 3.7. Same read-out and setting: next, `CC(C)C(Oc1ccc(-n2cc(C(F)(F)F)cn2)cc1)c1ccc(C(=O)NCCC(=O)O)cc1` (racemic): 2.6; `O=C(O)CCNC(=O)c1ccc(C(Oc2ccc(-n3cc(C(F)(F)F)cn3)cc2)C2CC2)cc1` (racemic): 1.7; `CCC(Oc1ccc(-n2cc(C(F)(F)F)cn2)cc1)c1ccc(C(=O)NCCC(=O)O)cc1` (racemic): 1.9. `CCCC(Oc1ccc(-n2cc(Cl)cn2)cc1)c1ccc(C(=O)NCCC(=O)O)cc1` (racemic): the solubility kinetic in [2] turned out to be 70 µM (≈ 30.9 µg/mL). The same compound showed a log distribution coefficient (logD) in “physchem” of 2.6.

`CCCC(Oc1ccc(-n2cc(C)cn2)cc1)c1ccc(C(=O)NCCC(=O)O)cc1` (racemic) returned a logD in the series “physchem” of 2.1.

In “physchem”, `CCCC(Oc1ccc(-n2cc(F)cn2)cc1)c1ccc(C(=O)NCCC(=O)O)cc1` (racemic) registered a logD of 2. Same read-out and setting: next, `CCCC(Oc1ccc(-n2cccn2)cc1)c1ccc(C(=O)NCCC(=O)O)cc1` (racemic): 1.7; `CCCC(Oc1ccc(-n2cc(C#N)cn2)cc1)c1ccc(C(=O)NCCC(=O)O)cc1` (racemic): 1.2. In “physchem”, `CCCC(Oc1ccc(-n2cc(OC)cn2)cc1)c1ccc(C(=O)NCCC(=O)O)cc1` (racemic) had a logD of 1.4. For `CCCC(Oc1ccc(-n2cc(C(=O)N(C)C)cn2)cc1)c1ccc(C(=O)NCCC(=O)O)cc1` (racemic), the logD in the series “physchem” worked out at 0.5.

`CCCC(Oc1ccc(-n2cc(C(F)(F)F)c(C)n2)cc1)c1ccc(C(=O)NCCC(=O)O)cc1` (racemic) returned a logD in the series “physchem” of 2.8. Take `CCCC(Oc1ccc(-n2cc3c(n2)CCCC3)cc1)c1ccc(C(=O)NCCC(=O)O)cc1` (racemic): the logD in the series “physchem” came out at 2.7.

In turn, `CCCC(Oc1cc(C)c(-n2cc(C(F)(F)F)cn2)c(C)c1)c1ccc(C(=O)NCCC(=O)O)cc1` (racemic) returned a logD in “physchem” of 2.6. On the same count and under the same terms, next, `CCCC(Oc1ccc(-n2cc(C(F)(F)F)cn2)c(C)c1)c1ccc(C(=O)NCCC(=O)O)cc1` (racemic): 2.6.

On to `CCCC(Nc1ccc(-n2cnc(C(F)(F)F)c2)cc1)c1ccc(C(=O)NCCC(=O)O)cc1` (single isomer, unassigned), for which the dose excreted in series [3] was 57%. In series [4], `CCCC(Oc1ccc(-n2cc(C(F)(F)F)cn2)cc1)c1ccc(C(=O)NCCC(=O)O)cc1` (single isomer, unassigned) showed a bioavailability of 60%. With `CCCC(Oc1ccc(-n2cc3ccccc3n2)cc1)c1ccc(C(=O)NCCC(=O)O)cc1` (single isomer, unassigned), the apparent permeability coefficient (Papp) in series [1] came to 2.2 ×10⁻⁶ cm/s. Further, in [4], the bioavailability came out at 3%. Consider `CCC[C@H](c1ccc(C(=O)NCCC(=O)O)cc1)[C@H](c1ccc(Cl)cc1)c1c[nH]c2c(F)cc(C)cc12` [MK-3577], for which the values for the bioavailability in series [5] and in series [4] were 30% and 7%, respectively. Also, in series [2], the solubility kinetic worked out at 23 µM (≈ 12 µg/mL). For the compound `CCC[C@H](Oc1cc(C)c(-n2cc(C(F)(F)F)cn2)c(C)c1)c1ccc(C(=O)NCCC(=O)O)cc1` [PF-06291874], the figures for the apparent permeability coefficient (Papp) in series [1], in series [9] and in [10] were 3.6 ×10⁻⁶ cm/s, 30 ×10⁻⁶ cm/s and 8.5 ×10⁻⁶ cm/s, respectively. Besides, the results for the Vd in series [6] and in series [7] were 0.31 L/kg and 0.4 L/kg, respectively. Also, the bioavailability in series [8] and in series [11] was 100% throughout. Besides, in “physchem”, the logD stood at 2.5.

By logD is commonly meant lipophilicity at a set pH, counting ionised and neutral species. Low values mean lower lipophilicity, high ones higher lipophilicity. Usually Papp stands for a coefficient for how fast a substance crosses the barrier. For orientation: bioavailability means the share of a dose that reaches the circulation, judged against a reference dose that is usually intravenous. A higher bioavailability goes with much systemic uptake.

Values taken from ChEMBL document CHEMBL2380306 (Bioorg Med Chem Lett, 2013).
